Data published in PMC11436758, “Computer-aided drug design to generate a unique antibiotic family” (Nature Communications, 2024).
In brackets after ≈: the same amount, converted by molar mass. Several values for one entry are separate records, joined by “and”; a condition that tells them apart may be missing. Equal entries are not always repeated.

Tests used:
[1] = target: T1, AcpS^N82/81A (Escherichia coli, UniProt P24224, N81A); assay: Inhibition of purified AcpS site-directed mutant by DNM0547; assay type: biochemical, E. coli; conditions: for AcpS rate nM/min, Mean / AcpS rate: Suppl Fig 3, [AcpS_N81A] 5nM; for AcpS rate: replicates
T1 construct: 6x-His (C); made in house
T1 sequence (P24224 whole entry N81A): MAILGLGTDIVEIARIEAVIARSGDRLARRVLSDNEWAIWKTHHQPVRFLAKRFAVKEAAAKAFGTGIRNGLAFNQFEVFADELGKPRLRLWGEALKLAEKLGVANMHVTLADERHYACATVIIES

[2] = Dermal pharmacokinetics, serum concentration after topical application; assay type: in vivo, Sprague Dawley rats
Description: We determined that the maximum concentration present in serum was 1.02 μg/mL at 7.0 h after application with a time½ of 8.7 h. By 24 h the concentration of DNM0547 had decreased to 0.06 μg/mL and by 48 h was 0.03 μg/mL (Supplementary Fig. 8).
Rat PK. […]
Supplementary Figure 8. Dermal PK of DNM0547. a, 2% DNM0547 was applied to shaved skin of Sprague Dawley rats and DNM0547 concentration in serum was determined over time (n=5). b, PK parameters for DNM0547 in serum. CV, coefficient variation was determined using Graphpad Prism.
(1 picture or pasted object on this page, not shown here)

[3] = tested on: wild type (K12) E. coli; assay: MIC, wild type E. coli; assay type: cell-based; conditions: Escherichia coli
Description: (§1) The outer membrane of Gram-negative bacteria is a robust permeability barrier that prevents many antibiotics from entering Gram-negative cells[46],[47]. The outer leaflet of this outer membrane is primarily composed of the unique lipid lipopolysaccharide (LPS). Strains of E. coli with point mutations in genes coding for LPS biosynthetic enzymes have been isolated that enable some antibiotics to effectively pass through the outer membrane enabling activity against these strains of E. coli[48]–[54]; one such strain is E. coli (D22) which contains a point mutation in the lpxC gene.
(§2) The medium employed for the assay was Mueller Hinton II Broth (MHB II; Becton-Dickinson, Sparks, MD, USA). Agar plates used for the organisms were trypticase soy agar plus 5% sheep blood (BD; Sparks, MD, USA). MIC assay plates were prepared using the CLSI broth microdilution procedure. Automated liquid handlers (Multidrop 384, Biomek 2000 and Biomek FX) were used to conduct serial dilutions and liquid transfers. A standardized inoculum of each organism was prepared per CLSI methods. Suspensions were prepared to equal a 0.5 McFarland standard, followed by a 1:20 dilution in test media. […] The microplates were viewed from the bottom using a plate viewer and the MIC was read. The MIC was recorded as the lowest concentration of drug that inhibited visible growth of the organism. […]

[4] = tested on: 102 ATCC strains and clinical isolates of Staphylococcus, Streptomyces, and Enterococcus; assay: MIC panel summary over all strains; assay type: cell-based; conditions: of the seven strains above 2 μg/mL
Description: We also sought to determine if DNM0547 was bacteriostatic or bactericidal. Time kill experiments were carried out using increasing doses of DNM0547 against two different strains of MRSA.
The medium employed for the assay was Mueller Hinton II Broth (MHB II; Becton-Dickinson, Sparks, MD, USA). Agar plates used for the organisms were trypticase soy agar plus 5% sheep blood (BD; Sparks, MD, USA). MIC assay plates were prepared using the CLSI broth microdilution procedure. Automated liquid handlers (Multidrop 384, Biomek 2000 and Biomek FX) were used to conduct serial dilutions and liquid transfers. A standardized inoculum of each organism was prepared per CLSI methods. Suspensions were prepared to equal a 0.5 McFarland standard, followed by a 1:20 dilution in test media. The inocula were dispensed into sterile reservoirs divided by length (Beckman Colter) and the Biomek 2000 was used to inoculate the plates. Daughter plates were placed on the Biomek 2000 work surface in reverse orientation so that inoculation took place from low to high drug concentration. The Biomek 2000 delivered 10 μL of the diluted suspension into each well. These inoculations yielded a final cell concentration in the daughter plates of ~5 × 10^5 colony-forming units/mL in each well. The wells of the daughter plates ultimately contained 185 μL of broth, 5 μL of drug solution, and 10 μL of bacterial inoculum. Plates were covered with a sterile lid on the top plate, placed in plastic bags, and incubated at 35 °C for ~18 h. The microplates were viewed from the bottom using a plate viewer and the MIC was read. The MIC was recorded as the lowest concentration of drug that inhibited visible growth of the organism.

[5] = tested on: E. coli (D22); assay: MIC, outer-membrane-permeable lpxC point mutant; assay type: cell-based; conditions: Escherichia coli
Description: as §1, §2

[6] = 2% on shaved skin, serum, mean, n=5

CC(C)c1cc(Cl)ccc1-c1cc(-c2nnn[nH]2)c(-c2ccc(Cl)cc2C(C)C)s1 [DNM0547]
IC50 [1]: 5 µM | AcpS rate nM/min, Mean ([1]; Drug Conc 1 uM): 7.81 nM/min | AcpS rate ([1]; Drug Conc 1 uM): 7.96 nM/min and 7.81 nM/min and 7.64 nM/min | AcpS rate nM/min, Mean ([1]; Drug Conc 2 uM): 6.86 nM/min | AcpS rate ([1]; Drug Conc 2 uM): 6.91 nM/min and 7.01 nM/min and 6.66 nM/min | AcpS rate nM/min, Mean ([1]; Drug Conc 4 uM): 4.72 nM/min | AcpS rate ([1]; Drug Conc 4 uM): 4.74 nM/min and 4.76 nM/min and 4.66 nM/min | AcpS rate nM/min, Mean ([1]; Drug Conc 8 uM): 3.23 nM/min | AcpS rate ([1]; Drug Conc 8 uM): 2.93 nM/min and 3.30 nM/min and 3.44 nM/min | AcpS rate nM/min, Mean ([1]; Drug Conc 16 uM): 2.83 nM/min | AcpS rate ([1]; Drug Conc 16 uM): 3.20 nM/min and 2.39 nM/min and 2.90 nM/min | AcpS rate nM/min, Mean ([1]; Drug Conc 32 uM): 1.69 nM/min | AcpS rate ([1]; Drug Conc 32 uM): 1.65 nM/min and 1.74 nM/min and 1.68 nM/min | AcpS rate nM/min, Mean ([1]; Drug Conc 64 uM): 1.60 nM/min | AcpS rate ([1]; Drug Conc 64 uM): 1.52 nM/min and 1.63 nM/min and 1.65 nM/min | AcpS rate nM/min, Mean ([1]; Drug Conc 128 uM): 1.34 nM/min | AcpS rate ([1]; Drug Conc 128 uM): 1.38 nM/min and 1.44 nM/min and 1.20 nM/min | remaining activity at 1 µM ([1]; read-out: % of untreated, Suppl Fig 3, [AcpS_N81A] 5nM, Drug Conc 1 uM, replicates): 105% | remaining activity at 2 µM ([1]; read-out: % of untreated, Suppl Fig 3, [AcpS_N81A] 5nM, Drug Conc 2 uM, replicates): 90.9% | remaining activity at 4 µM ([1]; read-out: % of untreated, Suppl Fig 3, [AcpS_N81A] 5nM, Drug Conc 4 uM, replicates): 62.4% | remaining activity at 8 µM ([1]; read-out: % of untreated, Suppl Fig 3, [AcpS_N81A] 5nM, Drug Conc 8 uM, replicates): 38.5% | remaining activity at 16 µM ([1]; read-out: % of untreated, Suppl Fig 3, [AcpS_N81A] 5nM, Drug Conc 16 uM, replicates): 42.1% | remaining activity at 32 µM ([1]; read-out: % of untreated, Suppl Fig 3, [AcpS_N81A] 5nM, Drug Conc 32 uM, replicates): 21.7% | remaining activity at 64 µM ([1]; read-out: % of untreated, Suppl Fig 3, [AcpS_N81A] 5nM, Drug Conc 64 uM, replicates): 20% | remaining activity at 128 µM ([1]; read-out: % of untreated, Suppl Fig 3, [AcpS_N81A] 5nM, Drug Conc 128 uM, replicates): 18.1% | maximum concentration present in serum ([2]; 2% applied topically): 1.02 µg/mL | Concmax [2, 6]: 1020 ng/mL | Time1/2 [2, 6]: 8.78 h and 8.7 h | Timemax [2, 6]: 7.00 h and 7.0 h | concentration at 6 h ([2]; Sprague Dawley, rat, in vivo, 2 %, Suppl Fig 8, Hour 6, individual animals, read-out: DNM0547 conc): 261 ng/mL | concentration at 12 h ([2]; Sprague Dawley, rat, in vivo, 2 %, Suppl Fig 8, Hour 12, individual animals, read-out: DNM0547 conc): 386 ng/mL | Tmax ([2]; Sprague Dawley, rat, serum, topical or ocular, 2% applied topically, read-out: time of maximum serum concentration after application): 7 h | concentration at 24 h ([2]; Sprague Dawley, rat, serum, topical, 2 %, 2% applied topically, 24 h): 60 ng/mL | concentration at 48 h ([2]; Sprague Dawley, rat, serum, topical, 2 %, 2% applied topically, 48 h): 30 ng/mL | DNM0547 conc ([2]; Suppl Fig 8, Hour 3, individual animals): 387 ng/mL and 281 ng/mL and 713 ng/mL and 1147 ng/mL and 236 ng/mL and 356 ng/mL | DNM0547 conc ([2]; Suppl Fig 8, Hour 6, individual animals): 449 ng/mL and 1172 ng/mL and 560 ng/mL and 656 ng/mL and 1620 ng/mL | DNM0547 conc ([2]; Suppl Fig 8, Hour 9, individual animals): 623 ng/mL and 414 ng/mL and 681 ng/mL and 201 ng/mL and 177 ng/mL and 767 ng/mL | DNM0547 conc ([2]; Suppl Fig 8, Hour 12, individual animals): 477 ng/mL and 879 ng/mL and 564 ng/mL and 277 ng/mL and 158 ng/mL | DNM0547 conc ([2]; Suppl Fig 8, Hour 24, individual animals): 65 ng/mL and 33 ng/mL and 92 ng/mL and 38 ng/mL and 45 ng/mL and 60 ng/mL | DNM0547 conc ([2]; Suppl Fig 8, Hour 48, individual animals): 46 ng/mL and 21 ng/mL and 55 ng/mL and 17 ng/mL and 16 ng/mL and 14 ng/mL | MIC [3]: 256 µg/mL (≈ 560 µM) | number of strains with MIC 4 μg/mL [4]: four | number of strains with MIC 8 μg/mL [4]: two | number of strains with MIC 32 μg/mL [4]: one | MIC [5]: 32 µg/mL (≈ 70 µM)
